Data: article PMC5908784, “Extracellular loops 2 and 3 of the calcitonin receptor selectively modify agonist binding and efficacy” (Biochemical Pharmacology, 2018)
Where a chain is given by its changes, count along the chain named. Where a SMILES comes first, the peptide text is derived from it. Bridges are numbered along the chain shown (N, C = ends).

How the values were obtained:
Assay in all cases: IP1 accumulation
Type in all cases: cell-based
Details in all cases: mean ± S.E.M.; for Emax: IP1 maximal response, SEM
hCTR L368A = target: T1, hCTR L368A (Homo sapiens, UniProt P30988, L368A)
T1 construct: c-Myc (N); expressed in transfected cells
T1 sequence (P30988 25-474 L368A): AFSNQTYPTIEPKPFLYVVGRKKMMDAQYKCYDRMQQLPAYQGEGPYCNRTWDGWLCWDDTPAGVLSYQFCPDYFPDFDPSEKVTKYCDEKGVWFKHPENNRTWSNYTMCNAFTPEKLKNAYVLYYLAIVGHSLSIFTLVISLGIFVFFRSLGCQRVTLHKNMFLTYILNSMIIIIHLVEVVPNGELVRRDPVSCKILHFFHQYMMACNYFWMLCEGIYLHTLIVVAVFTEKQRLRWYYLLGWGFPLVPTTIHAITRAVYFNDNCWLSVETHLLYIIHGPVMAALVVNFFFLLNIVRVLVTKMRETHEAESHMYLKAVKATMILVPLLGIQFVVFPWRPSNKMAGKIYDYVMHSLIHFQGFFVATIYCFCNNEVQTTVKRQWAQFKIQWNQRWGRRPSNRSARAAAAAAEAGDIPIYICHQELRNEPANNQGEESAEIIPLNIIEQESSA
Experimental: (§1) Cells (2.5 × 10^4 cells/well) were plated into 96 well trays and cultured overnight. Cells were stimulated with increasing concentration of ligands for 60 min in the presence of LiCl. Samples were lysed and endogenous IP1 was measured using an IP-One HTRF® assay kit (CisBio) as specified by the manufacturer. Data were normalized to the maximal response elicited by 100 μM of ATP.
(§2) Data were corrected for radioligand occupancy using the Cheng-Prusoff equation in Prism; as such data are reported as pKi. Emax and EC50 were estimated from concentration-response curves using with a 3-parameter logistic equation in Prism (v7). These values are a composite of functional affinity, efficacy and stimulus response coupling. […] Significance was accepted at P < 0.05.

hCTR N288A = target: T2, hCTR N288A (Homo sapiens, UniProt P30988, N288A)
T2 construct: expressed in transfected cells
T2 sequence (P30988 25-474 N288A): T1 sequence (P30988 25-474 L368A) with N264A, A344L
Experimental: as §1, §2

hCTR R362A = target: T3, hCTR R362A (Homo sapiens, UniProt P30988, R362A)
T3 construct: expressed in transfected cells
T3 sequence (P30988 25-474 R362A): T1 sequence (P30988 25-474 L368A) with R338A, A344L
Experimental: as §1, §2

hCTR S364A = target: T4, hCTR S364A (Homo sapiens, UniProt P30988, S364A)
T4 construct: c-Myc (N); expressed in transfected cells
T4 sequence (P30988 25-474 S364A): T1 sequence (P30988 25-474 L368A) with S340A, A344L
Experimental: as §1, §2

hCTR W361A = target: T5, hCTR W361A (Homo sapiens, UniProt P30988, W361A)
T5 construct: expressed in transfected cells
T5 sequence (P30988 25-474 W361A): T1 sequence (P30988 25-474 L368A) with W337A, A344L
Experimental: as §1, §2

[1] = IP1, CV1-FlpIn cells, 60 min, LiCl

| EC50 (hCTR L368A; [1]) [nM] | EC50 (hCTR N288A; [1]) [nM] | EC50 (hCTR R362A; [1]) [nM] | EC50 (hCTR S364A; [1]) [nM] | EC50 (hCTR W361A; [1]) [nM] | Structure (SMILES) | Emax (hCTR L368A) [%] | Emax (hCTR N288A) [%] | Emax (hCTR R362A) [%] | Emax (hCTR S364A) [%] | Emax (hCTR W361A) [%] |
| --- | --- | --- | --- | --- | --- | --- | --- | --- | --- | --- |
| 10 | 1.91 | 19.5 | 6.92 | 8.32 | CSCC[C@H](NC(=O)CNC(=O)[C@H](CO)NC(=O)[C@H](Cc1ccccc1)NC(=O)[C@H](CCCNC(=N)N)NC(=O)[C@H](Cc1c[nH]cn1)NC(=O)[C@H](Cc1ccccc1)NC(=O)[C@H](CC(N)=O)NC(=O)[C@H](CC(N)=O)NC(=O)[C@H](CC(C)C)NC(=O)[C@H](CC(N)=O)NC(=O)[C@H](CCCNC(=N)N)NC(=O)[C@H](Cc1c[nH]c2ccccc12)NC(=O)[C@H](Cc1ccc(O)cc1)NC(=O)[C@H](C)NC(=O)[C@H](CO)NC(=O)[C@H](CC(C)C)NC(=O)[C@@H](NC(=O)[C@@H]1CSSC[C@H](N)C(=O)N[C@@H](CO)C(=O)N[C@@H](CC(N)=O)C(=O)N[C@@H](CC(C)C)C(=O)N[C@@H](CO)C(=O)N[C@@H]([C@@H](C)O)C(=O)N1)C(C)C)C(=O)NCC(=O)N[C@@H](Cc1ccccc1)C(=O)NCC(=O)N1CCC[C@H]1C(=O)N[C@@H](CCC(=O)O)C(=O)N[C@H](C(=O)N1CCC[C@H]1C(N)=O)[C@@H](C)O [pCT] (H-CSNLSTCVLSAYWRNLNNFHRFSGMGFGPETP-NH2; disulfide 1-7) | 94 ± 9 | 93 ± 7 | 47 ± 9 | 93 ± 6 | 80 ± 6 |
|  |  |  |  |  | CC(C)C[C@H](NC(=O)[C@H](CCCCN)NC(=O)CNC(=O)[C@H](CC(C)C)NC(=O)[C@@H](NC(=O)[C@@H]1CSSC[C@H](N)C(=O)N[C@@H](CO)C(=O)N[C@@H](CC(N)=O)C(=O)N[C@@H](CC(C)C)C(=O)N[C@@H](CO)C(=O)N[C@@H]([C@@H](C)O)C(=O)N1)C(C)C)C(=O)N[C@@H](CO)C(=O)N[C@@H](CCC(N)=O)C(=O)N[C@@H](CCC(=O)O)C(=O)N[C@@H](CC(C)C)C(=O)N[C@@H](Cc1c[nH]cn1)C(=O)N[C@@H](CCCCN)C(=O)N[C@@H](CC(C)C)C(=O)N[C@@H](CCC(N)=O)C(=O)N[C@H](C(=O)N[C@@H](Cc1ccc(O)cc1)C(=O)N1CCC[C@H]1C(=O)N[C@@H](CCCNC(=N)N)C(=O)N[C@H](C(=O)N[C@@H](CC(N)=O)C(=O)N[C@H](C(=O)NCC(=O)N[C@@H](CO)C(=O)NCC(=O)N[C@H](C(=O)N1CCC[C@H]1C(N)=O)[C@@H](C)O)[C@@H](C)O)[C@@H](C)O)[C@@H](C)O [sCT] | 97 ± 4 | 119 ± 6 | 64 ± 5 | 87 ± 6 | 108 ± 6 |
|  |  |  |  |  | CC[C@H](C)[C@H](NC(=O)[C@H](C)NC(=O)[C@@H](NC(=O)[C@H](CCC(N)=O)NC(=O)[C@@H]1CCCN1C(=O)[C@H](Cc1ccccc1)NC(=O)[C@@H](NC(=O)[C@H](Cc1c[nH]cn1)NC(=O)[C@H](Cc1ccccc1)NC(=O)[C@H](CCCCN)NC(=O)[C@H](CC(N)=O)NC(=O)[C@H](Cc1ccccc1)NC(=O)[C@H](CC(=O)O)NC(=O)[C@H](CCC(N)=O)NC(=O)[C@@H](NC(=O)[C@H](Cc1ccc(O)cc1)NC(=O)[C@@H](NC(=O)CNC(=O)[C@H](CC(C)C)NC(=O)[C@H](CCSC)NC(=O)[C@@H]1CSSC[C@H](N)C(=O)NCC(=O)N[C@@H](CC(N)=O)C(=O)N[C@@H](CC(C)C)C(=O)N[C@@H](CO)C(=O)N[C@@H]([C@@H](C)O)C(=O)N1)[C@@H](C)O)[C@@H](C)O)[C@@H](C)O)[C@@H](C)O)C(=O)NCC(=O)N[C@H](C(=O)NCC(=O)N[C@@H](C)C(=O)N1CCC[C@H]1C(N)=O)C(C)C [hCT] | 115 ± 7 | 91 ± 8 | 77 ± 11 | 93 ± 8 | 89 ± 9 |
